{
  "source": "ChEMBL document CHEMBL5465560",
  "about": "“Selectivity Literature for EUbOPEN Chemogenomic Library” (2024)",
  "key": {"[1]": {"target": "T1, Dual specificity mitogen-activated protein kinase kinase 6 (Homo sapiens) (UniProt P52564)", "T1 sequence (whole entry)": "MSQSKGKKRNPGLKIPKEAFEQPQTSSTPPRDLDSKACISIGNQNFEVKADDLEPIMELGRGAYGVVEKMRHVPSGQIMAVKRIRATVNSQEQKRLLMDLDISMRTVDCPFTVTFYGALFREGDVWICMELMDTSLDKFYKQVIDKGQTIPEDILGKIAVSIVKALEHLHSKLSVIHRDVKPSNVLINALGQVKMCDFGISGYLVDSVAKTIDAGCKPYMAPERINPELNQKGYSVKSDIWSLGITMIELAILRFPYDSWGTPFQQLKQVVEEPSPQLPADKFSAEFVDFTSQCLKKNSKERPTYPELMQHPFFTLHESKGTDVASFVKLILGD", "conditions": "at 10 µM"}, "[2]": {"target": "Ribosomal protein S6 kinase alpha-5 (Homo sapiens) (UniProt O75582)", "sequence (O75582 whole entry, looked up)": "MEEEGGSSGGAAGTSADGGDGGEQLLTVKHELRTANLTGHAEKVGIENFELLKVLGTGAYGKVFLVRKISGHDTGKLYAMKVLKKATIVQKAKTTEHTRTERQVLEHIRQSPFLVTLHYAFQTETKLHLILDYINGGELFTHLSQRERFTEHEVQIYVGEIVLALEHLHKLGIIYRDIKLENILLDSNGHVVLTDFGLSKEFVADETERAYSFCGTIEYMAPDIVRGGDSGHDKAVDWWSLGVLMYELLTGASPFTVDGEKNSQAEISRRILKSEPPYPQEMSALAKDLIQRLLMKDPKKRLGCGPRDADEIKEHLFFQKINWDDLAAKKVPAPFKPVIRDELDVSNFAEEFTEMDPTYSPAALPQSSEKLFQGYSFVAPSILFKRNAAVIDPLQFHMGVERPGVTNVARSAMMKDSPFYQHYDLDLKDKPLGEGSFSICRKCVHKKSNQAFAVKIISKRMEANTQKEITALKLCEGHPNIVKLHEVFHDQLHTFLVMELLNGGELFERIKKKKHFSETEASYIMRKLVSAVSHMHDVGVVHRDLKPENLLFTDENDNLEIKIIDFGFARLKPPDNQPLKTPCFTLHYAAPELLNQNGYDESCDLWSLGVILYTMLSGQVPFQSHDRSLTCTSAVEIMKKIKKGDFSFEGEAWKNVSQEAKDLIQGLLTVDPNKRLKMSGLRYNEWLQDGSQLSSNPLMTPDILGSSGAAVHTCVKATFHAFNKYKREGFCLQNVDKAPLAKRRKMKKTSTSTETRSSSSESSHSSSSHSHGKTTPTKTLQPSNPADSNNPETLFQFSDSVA", "assay": "Selectivity interaction (KinomeScan (DiscoverX)) EUB0001049a RPS6KA5", "conditions": "at 1 µM"}, "[3]": {"target": "Myosin light chain kinase, smooth muscle (Homo sapiens, UniProt Q15746)", "sequence (Q15746 whole entry)": "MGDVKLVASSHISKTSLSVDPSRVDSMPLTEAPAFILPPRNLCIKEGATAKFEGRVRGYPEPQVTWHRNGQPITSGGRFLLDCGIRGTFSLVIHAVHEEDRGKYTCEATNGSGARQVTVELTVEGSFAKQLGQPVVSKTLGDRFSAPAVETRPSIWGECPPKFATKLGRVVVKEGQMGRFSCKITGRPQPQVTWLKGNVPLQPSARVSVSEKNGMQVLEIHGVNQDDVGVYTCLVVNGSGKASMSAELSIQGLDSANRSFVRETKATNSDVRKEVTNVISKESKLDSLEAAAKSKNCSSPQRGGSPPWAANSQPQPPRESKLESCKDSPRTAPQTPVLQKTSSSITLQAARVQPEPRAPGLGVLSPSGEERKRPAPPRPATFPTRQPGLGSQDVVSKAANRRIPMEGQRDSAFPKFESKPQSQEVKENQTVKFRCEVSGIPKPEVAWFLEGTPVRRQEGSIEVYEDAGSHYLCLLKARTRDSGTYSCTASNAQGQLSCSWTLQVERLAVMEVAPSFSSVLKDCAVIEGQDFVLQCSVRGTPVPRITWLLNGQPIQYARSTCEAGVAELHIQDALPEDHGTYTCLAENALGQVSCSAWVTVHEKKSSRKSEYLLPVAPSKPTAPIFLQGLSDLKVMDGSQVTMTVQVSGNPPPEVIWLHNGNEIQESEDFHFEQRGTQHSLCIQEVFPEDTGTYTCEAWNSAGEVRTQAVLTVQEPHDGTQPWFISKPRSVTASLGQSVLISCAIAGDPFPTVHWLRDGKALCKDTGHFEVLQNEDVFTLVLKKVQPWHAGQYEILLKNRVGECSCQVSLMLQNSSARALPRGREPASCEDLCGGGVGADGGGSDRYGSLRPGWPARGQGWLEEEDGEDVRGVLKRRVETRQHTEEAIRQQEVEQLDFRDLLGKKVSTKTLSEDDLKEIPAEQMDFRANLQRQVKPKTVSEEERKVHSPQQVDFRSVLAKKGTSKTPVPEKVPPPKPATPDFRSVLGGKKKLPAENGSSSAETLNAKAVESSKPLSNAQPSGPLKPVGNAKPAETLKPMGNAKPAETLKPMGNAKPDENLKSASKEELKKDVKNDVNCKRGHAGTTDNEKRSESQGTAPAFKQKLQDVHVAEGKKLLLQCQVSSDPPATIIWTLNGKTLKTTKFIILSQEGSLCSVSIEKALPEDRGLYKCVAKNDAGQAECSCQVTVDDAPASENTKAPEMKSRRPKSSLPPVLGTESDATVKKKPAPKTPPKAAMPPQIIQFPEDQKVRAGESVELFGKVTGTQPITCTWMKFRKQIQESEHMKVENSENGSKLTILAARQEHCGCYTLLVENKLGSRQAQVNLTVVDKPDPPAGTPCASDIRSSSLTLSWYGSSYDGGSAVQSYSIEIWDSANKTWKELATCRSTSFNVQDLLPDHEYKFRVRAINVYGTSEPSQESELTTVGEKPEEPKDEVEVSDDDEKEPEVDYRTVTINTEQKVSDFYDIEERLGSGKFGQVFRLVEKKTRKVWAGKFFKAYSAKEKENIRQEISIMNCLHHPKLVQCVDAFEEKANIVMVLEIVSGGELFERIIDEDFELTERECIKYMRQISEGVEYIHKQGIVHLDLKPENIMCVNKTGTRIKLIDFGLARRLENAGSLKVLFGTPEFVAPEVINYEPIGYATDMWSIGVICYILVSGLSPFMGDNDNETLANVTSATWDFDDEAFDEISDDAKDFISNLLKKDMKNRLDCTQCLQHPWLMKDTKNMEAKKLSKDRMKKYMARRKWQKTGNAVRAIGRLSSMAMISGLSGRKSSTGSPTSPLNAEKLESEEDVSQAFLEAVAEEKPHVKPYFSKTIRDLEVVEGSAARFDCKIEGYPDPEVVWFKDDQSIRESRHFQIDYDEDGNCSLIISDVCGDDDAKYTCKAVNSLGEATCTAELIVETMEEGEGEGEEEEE", "assay": "Selectivity interaction (Ambit KINOMEscan and KiNATiv profiling in Jurkat cells) EUB0000090b MYLK", "assay_type": "cell-based", "conditions": "at 1 µM"}, "[4]": {"target": "T2, MAP/microtubule affinity-regulating kinase 4 (Homo sapiens) (UniProt Q96L34)", "T2 sequence (whole entry)": "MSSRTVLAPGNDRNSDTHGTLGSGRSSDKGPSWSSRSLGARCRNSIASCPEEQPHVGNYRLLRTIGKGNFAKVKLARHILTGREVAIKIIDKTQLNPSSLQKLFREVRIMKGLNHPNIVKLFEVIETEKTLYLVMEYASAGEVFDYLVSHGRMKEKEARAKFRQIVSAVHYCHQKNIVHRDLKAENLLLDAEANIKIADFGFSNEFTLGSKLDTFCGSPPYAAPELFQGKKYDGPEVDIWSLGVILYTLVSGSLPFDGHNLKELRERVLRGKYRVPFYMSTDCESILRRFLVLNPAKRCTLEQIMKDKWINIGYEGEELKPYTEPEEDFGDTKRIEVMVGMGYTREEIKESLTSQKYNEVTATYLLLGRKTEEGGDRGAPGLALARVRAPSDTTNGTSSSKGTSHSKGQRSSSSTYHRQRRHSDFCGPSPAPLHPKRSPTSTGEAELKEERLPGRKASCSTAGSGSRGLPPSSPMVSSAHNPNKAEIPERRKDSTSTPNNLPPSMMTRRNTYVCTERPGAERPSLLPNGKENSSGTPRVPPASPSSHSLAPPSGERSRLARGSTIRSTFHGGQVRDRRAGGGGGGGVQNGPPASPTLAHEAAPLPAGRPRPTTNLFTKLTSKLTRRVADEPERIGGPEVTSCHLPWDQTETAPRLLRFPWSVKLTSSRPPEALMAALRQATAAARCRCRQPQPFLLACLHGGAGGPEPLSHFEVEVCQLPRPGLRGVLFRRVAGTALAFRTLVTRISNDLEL", "assay": "Selectivity interaction (ActivX KiNativ screen (kinase selectivity in THP-1 cell lysates)) EUB0000639a MARK4", "assay_type": "subcellular", "conditions": "lysate, at 1 µM"}, "[5]": {"target": "Calcium/calmodulin-dependent protein kinase type 1 (Homo sapiens) (UniProt Q14012)", "sequence (Q14012 whole entry, looked up)": "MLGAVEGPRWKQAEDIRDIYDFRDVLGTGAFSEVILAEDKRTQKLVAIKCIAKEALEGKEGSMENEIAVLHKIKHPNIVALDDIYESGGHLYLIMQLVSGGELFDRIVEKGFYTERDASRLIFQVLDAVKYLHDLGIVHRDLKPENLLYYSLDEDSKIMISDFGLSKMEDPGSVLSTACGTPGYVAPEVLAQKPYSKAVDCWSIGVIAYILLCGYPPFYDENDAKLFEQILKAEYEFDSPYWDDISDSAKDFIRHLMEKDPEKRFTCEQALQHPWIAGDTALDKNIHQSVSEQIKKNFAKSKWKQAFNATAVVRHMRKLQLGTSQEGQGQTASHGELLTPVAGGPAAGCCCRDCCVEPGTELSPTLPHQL", "assay": "Selectivity interaction (Kinase panel (Invitrogen)) EUB0000639a CAMK1", "conditions": "at 200 nM"}, "[6]": {"target": "T3, NUAK family SNF1-like kinase 2 (Homo sapiens) (UniProt Q9H093)", "T3 sequence (whole entry)": "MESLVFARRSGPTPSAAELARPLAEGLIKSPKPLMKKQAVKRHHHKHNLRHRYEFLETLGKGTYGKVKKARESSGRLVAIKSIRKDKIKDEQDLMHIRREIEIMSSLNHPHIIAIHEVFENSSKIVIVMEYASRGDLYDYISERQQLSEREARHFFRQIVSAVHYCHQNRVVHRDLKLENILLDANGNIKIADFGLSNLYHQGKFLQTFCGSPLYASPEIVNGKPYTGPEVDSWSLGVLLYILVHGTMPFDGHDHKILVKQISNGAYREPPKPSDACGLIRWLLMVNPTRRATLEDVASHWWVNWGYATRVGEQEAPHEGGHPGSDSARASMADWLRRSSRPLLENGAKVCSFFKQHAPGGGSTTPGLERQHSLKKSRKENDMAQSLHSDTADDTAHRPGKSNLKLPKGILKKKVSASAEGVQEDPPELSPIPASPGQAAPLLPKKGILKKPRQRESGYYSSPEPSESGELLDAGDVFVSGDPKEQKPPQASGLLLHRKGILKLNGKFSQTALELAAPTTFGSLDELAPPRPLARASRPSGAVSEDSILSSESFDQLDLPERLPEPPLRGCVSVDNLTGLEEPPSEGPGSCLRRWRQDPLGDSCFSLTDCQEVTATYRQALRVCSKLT", "assay": "Selectivity interaction (KinomeScan (DiscoverX)) EUB0000695a NUAK2", "conditions": "at 100 nM"}, "[7]": {"target": "Serine/threonine-protein kinase PLK1 (Homo sapiens, UniProt P53350)", "sequence (P53350 whole entry)": "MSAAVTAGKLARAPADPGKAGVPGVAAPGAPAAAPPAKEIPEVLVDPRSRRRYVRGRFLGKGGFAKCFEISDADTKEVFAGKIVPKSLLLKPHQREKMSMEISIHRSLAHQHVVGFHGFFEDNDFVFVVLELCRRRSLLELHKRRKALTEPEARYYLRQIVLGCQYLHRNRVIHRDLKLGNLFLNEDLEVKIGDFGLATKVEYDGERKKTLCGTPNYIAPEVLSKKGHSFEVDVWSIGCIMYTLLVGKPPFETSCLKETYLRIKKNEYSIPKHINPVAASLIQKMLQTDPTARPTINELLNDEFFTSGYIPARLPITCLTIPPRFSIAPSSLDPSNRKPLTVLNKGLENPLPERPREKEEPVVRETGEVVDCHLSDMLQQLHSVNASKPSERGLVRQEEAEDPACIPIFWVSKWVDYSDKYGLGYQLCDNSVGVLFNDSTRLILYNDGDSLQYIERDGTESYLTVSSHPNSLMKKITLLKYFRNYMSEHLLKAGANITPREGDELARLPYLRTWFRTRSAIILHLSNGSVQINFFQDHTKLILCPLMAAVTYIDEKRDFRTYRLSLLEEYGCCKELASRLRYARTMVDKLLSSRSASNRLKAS", "assay": "Selectivity interaction (KinomeScan (DiscoverX)) EUB0000695a PLK1", "conditions": "at 100 nM"}, "[8]": {"target": "Proto-oncogene tyrosine-protein kinase Src (Homo sapiens, UniProt P12931)", "sequence (P12931 2-536 limits assumed)": "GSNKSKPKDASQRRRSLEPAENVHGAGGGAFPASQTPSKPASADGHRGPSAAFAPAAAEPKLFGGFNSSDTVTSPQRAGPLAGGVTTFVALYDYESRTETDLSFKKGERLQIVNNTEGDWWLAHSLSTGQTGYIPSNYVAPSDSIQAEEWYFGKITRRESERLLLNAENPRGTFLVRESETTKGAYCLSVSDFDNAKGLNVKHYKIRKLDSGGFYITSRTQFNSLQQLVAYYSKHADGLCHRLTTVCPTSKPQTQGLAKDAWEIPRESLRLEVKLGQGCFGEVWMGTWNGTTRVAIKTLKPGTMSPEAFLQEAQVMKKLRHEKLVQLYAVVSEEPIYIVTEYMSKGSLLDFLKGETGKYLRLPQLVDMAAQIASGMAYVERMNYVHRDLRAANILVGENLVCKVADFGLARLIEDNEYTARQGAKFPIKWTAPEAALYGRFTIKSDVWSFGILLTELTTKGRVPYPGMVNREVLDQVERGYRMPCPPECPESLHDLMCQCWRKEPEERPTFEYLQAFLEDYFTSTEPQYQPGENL", "assay": "Selectivity interaction (KinomeScan (DiscoverX)) EUB0000045b SRC"}, "[9]": {"target": "Phosphatidylinositol 4-phosphate 5-kinase type-1 gamma (Homo sapiens) (UniProt O60331)", "sequence (O60331 whole entry)": "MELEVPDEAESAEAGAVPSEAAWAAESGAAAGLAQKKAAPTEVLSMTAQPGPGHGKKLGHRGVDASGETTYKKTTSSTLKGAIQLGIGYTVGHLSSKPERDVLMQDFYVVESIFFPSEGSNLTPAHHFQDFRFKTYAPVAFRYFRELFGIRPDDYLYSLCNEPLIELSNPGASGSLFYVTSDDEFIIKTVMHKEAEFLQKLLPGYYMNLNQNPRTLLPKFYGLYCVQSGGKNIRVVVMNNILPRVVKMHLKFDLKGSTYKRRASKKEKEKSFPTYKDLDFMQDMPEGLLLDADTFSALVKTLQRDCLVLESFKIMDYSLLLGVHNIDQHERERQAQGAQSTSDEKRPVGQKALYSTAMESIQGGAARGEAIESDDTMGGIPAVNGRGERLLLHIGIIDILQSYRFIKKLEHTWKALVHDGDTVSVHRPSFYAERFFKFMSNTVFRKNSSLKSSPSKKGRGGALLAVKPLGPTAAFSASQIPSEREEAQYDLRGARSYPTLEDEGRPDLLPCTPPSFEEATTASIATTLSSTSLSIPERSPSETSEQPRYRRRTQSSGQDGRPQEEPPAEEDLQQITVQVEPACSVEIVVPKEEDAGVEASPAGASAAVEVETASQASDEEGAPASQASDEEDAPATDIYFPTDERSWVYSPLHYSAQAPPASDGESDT", "assay": "Selectivity interaction (KinomeScan (DiscoverX)) EUB0000618a PIP5K1C", "conditions": "at 10 µM"}, "[10]": {"target": "T4, Dual specificity mitogen-activated protein kinase kinase 5 (Homo sapiens) (UniProt Q13163)", "T4 sequence (whole entry)": "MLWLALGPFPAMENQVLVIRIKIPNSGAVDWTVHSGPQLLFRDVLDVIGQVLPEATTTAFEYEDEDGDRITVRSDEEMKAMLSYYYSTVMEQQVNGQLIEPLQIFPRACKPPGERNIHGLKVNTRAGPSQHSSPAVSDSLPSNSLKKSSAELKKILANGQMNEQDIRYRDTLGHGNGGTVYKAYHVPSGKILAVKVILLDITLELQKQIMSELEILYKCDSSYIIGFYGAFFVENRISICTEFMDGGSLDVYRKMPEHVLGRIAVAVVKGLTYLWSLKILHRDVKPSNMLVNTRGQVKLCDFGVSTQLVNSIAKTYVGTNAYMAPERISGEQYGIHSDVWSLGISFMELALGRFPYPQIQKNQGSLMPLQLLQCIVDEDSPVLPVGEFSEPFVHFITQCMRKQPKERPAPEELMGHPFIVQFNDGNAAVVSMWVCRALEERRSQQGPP", "assay": "Selectivity interaction (Kinase panel (KiNativ target engagement assay in Jurkat cells)) EUB0001635a MAP2K5", "assay_type": "cell-based", "conditions": "Selectivity number of off-targets 0.0, Selectivity number of targets 233.0, Source Knowledge https://www.sciencedirect.com/science/article/pii/S2451945619300674?via%3Dihub, at 1 µM"}, "[11]": {"target": "Mitogen-activated protein kinase 10 (Homo sapiens, UniProt P53779)", "assay": "Selectivity interaction (Kinase panel (DSF assay)) EUB0001558a MAPK10"}},
  "data": [
    {"smiles": "Cc1cc([C@@H](C)Nc2ccccc2C(=O)O)c2nc(N3CCOCC3)cc(=O)n2c1", "note": "[AZD-6482]", "values": [
      {"measurement": "% of control", "setting": "[1]", "result": 92, "unit": "%"}
    ]},
    {"smiles": "COc1cc(Nc2nc(C)cc(-c3cnn4nc(OC)ccc34)n2)cc(C(F)(F)F)c1", "values": [
      {"measurement": "% of control", "setting": "[2]", "result": 100, "unit": "%"}
    ]},
    {"smiles": "CN(C)C/C=C/C(=O)Nc1ccc(C(=O)N2CCCC(Nc3ncc(Cl)c(-c4c[nH]c5ccccc45)n3)C2)cc1", "note": "(configuration not stated)", "values": [
      {"measurement": "% of control", "setting": "[3]", "result": 78, "unit": "%"}
    ]},
    {"smiles": "CC[C@@H]1[C@H](F)C(=O)N[C@@H]1COc1nccc2cc(C(N)=O)c(OC)cc12", "note": "[ZIMLOVISERTIB]", "values": [
      {"measurement": "% of inhibition", "setting": "[4]", "result": 17.1, "unit": "%"},
      {"measurement": "% of inhibition", "setting": "[5]", "result": -15.3, "unit": "%"}
    ]},
    {"smiles": "Cc1cc(F)c(C(=O)Nc2cccc(-c3nncn3C(C)C)n2)cc1-n1cnc(C2CC2)c1", "values": [
      {"measurement": "% of control", "setting": "[6]", "result": 94, "unit": "%"},
      {"measurement": "% of control", "setting": "[7]", "result": 100, "unit": "%"}
    ]},
    {"smiles": "C=CC(=O)Nc1cc(-n2c(=O)ccc3cnc4ccc(-c5ccc(NS(C)(=O)=O)cc5)cc4c32)ccc1C", "values": [
      {"measurement": "% of control", "setting": "[8]; at 1 µM", "result": 92, "unit": "%"},
      {"measurement": "% of control", "setting": "[8]; at 10 µM", "result": 100, "unit": "%"}
    ]},
    {"smiles": "O[C@H]1CC[C@H](Nc2ncc3nc(Nc4c(F)cc(F)cc4F)n([C@H]4CCOC4)c3n2)CC1", "values": [
      {"measurement": "% of control", "setting": "[9]", "result": 76, "unit": "%"}
    ]},
    {"smiles": "C=CC(=O)Nc1ccc(C(=O)Nc2[nH]nc3c2CN(C(=O)N[C@H](CN(C)C)c2ccccc2)C3(C)C)cc1", "values": [
      {"measurement": "% of engagement", "setting": "[10]", "result": 5.3, "unit": "%"}
    ]},
    {"smiles": "CC(C)(O)[C@H](F)CN1Cc2cc(NC(=O)c3cnn4cccnc34)c(N3CCOCC3)cc2C1=O", "values": [
      {"measurement": "dTM", "setting": "[11]", "result": 1.5, "unit": "K"}
    ]}
  ]
}
